The text below walks through data of ChEMBL document CHEMBL3045563, “Synthesis and in vitro antibacterial activity of schiff bases of N-substituted isatins as effective scaffolds” (2013).

Values after ≈ are worked out from the molar mass of the structure shown.

Broadly, the MIC is the smallest concentration in the dilution series that meets the test's criterion for growth inhibition.

Holding throughout (type): functional
Test [1] relates to Bacillus subtilis. The experiment in a line: Antibacterial activity against Bacillus subtilis NCIM 2156 assessed as growth inhibition after 48 hr by NCCLS broth dilution method. As to conditions: NCIM 2156, 48 h. For orientation: Broth dilution looks for growth in wells or tubes with falling amounts of substance.
Test [2] relates to Proteus vulgaris. In words: Antibacterial activity against Proteus vulgaris NCIM 2027 assessed as growth inhibition after 48 hr by NCCLS broth dilution method. The note with it: NCIM 2027, 48 h.
In test [3] the test system is Pseudomonas aeruginosa. In words: Antibacterial activity against Pseudomonas aeruginosa NCIM 2036 assessed as growth inhibition after 48 hr by NCCLS broth dilution method. As to conditions: NCIM 2036, 48 h.
Test [4] relates to Staphylococcus aureus. The experiment in a line: Antibacterial activity against Staphylococcus aureus NCIM 2079 assessed as growth inhibition after 48 hr by NCCLS broth dilution method. As to conditions: NCIM 2079, 48 h.
Test [5] deals with Staphylococcus aureus. In words: Antibacterial activity against Staphylococcus aureus NCIM 2079 assessed as diameter of growth zone inhibition after 24 hr by disk diffusion method. Background: In agar diffusion tests the substance spreads into inoculated agar from a disc or well.
Test [6] concerns Pseudomonas aeruginosa. The experiment in a line: Antibacterial activity against Pseudomonas aeruginosa NCIM 2036 assessed as diameter of growth zone inhibition after 24 hr by disk diffusion method.
Test [7] relates to Escherichia coli. In words: Antibacterial activity against Escherichia coli NCIM 2065 assessed as diameter of growth zone inhibition after 24 hr by disk diffusion method.
In test [8] the test system is Bacillus subtilis. The experiment in a line: Antibacterial activity against Bacillus subtilis NCIM 2156 assessed as diameter of growth zone inhibition after 24 hr by disk diffusion method.
The subject of test [9] is Proteus vulgaris. The experiment in a line: Antibacterial activity against Proteus vulgaris NCIM 2027 assessed as diameter of growth zone inhibition after 24 hr by disk diffusion method.
The subject of test [10] is Staphylococcus epidermidis. The experiment in a line: Antibacterial activity against Staphylococcus epidermidis NCIM 2493 assessed as diameter of growth zone inhibition after 24 hr by disk diffusion method.
Test [11] relates to Escherichia coli. In words: Antibacterial activity against Escherichia coli NCIM 2065 assessed as growth inhibition after 48 hr by NCCLS broth dilution method. As to conditions: NCIM 2065, 48 h.
In test [12] the test system is Staphylococcus epidermidis. The experiment in a line: Antibacterial activity against Staphylococcus epidermidis NCIM 2493 assessed as growth inhibition after 48 hr by NCCLS broth dilution method. As to conditions: NCIM 2493, 48 h.

In the case of `Cc1cc(/N=C2\C(=O)N(Cc3ccccc3)c3ccc(OC(F)(F)F)cc32)ccc1N1C(=O)c2ccc(Cl)cc2C1=O`, the MIC was 25 µg/mL (≈ 42.4 µM) in the test with Bacillus subtilis [1]; 20 µg/mL (≈ 33.9 µM) with Proteus vulgaris [2]; 20 µg/mL (≈ 33.9 µM) with Pseudomonas aeruginosa [3]; 25 µg/mL (≈ 42.4 µM) in the test on Staphylococcus aureus [4]; 15 µg/mL (≈ 25.4 µM) in the test with Escherichia coli [11]; 20 µg/mL (≈ 33.9 µM) in test [12]. Moreover, the “diameter of the inhibition zone (DIZ)” value in the test on Staphylococcus aureus [5] came to 14 mm; in the test on Pseudomonas aeruginosa [6] it was 10 mm; in the test with Escherichia coli [7] it was 17 mm; in the test on Bacillus subtilis [8], 12 mm; in the test on Proteus vulgaris [9], 12 mm; in test [10], 8 mm.
